Earlier results as cited in patent US11351185B2, “Use of isovalerylspiramycins as anti-cancer agents to inhibit metastasis” (priority 2020, dated 2022).

Legend:
[1] = system: human cancer lines; conditions: MCF-7, MDA-MB-231, HepG2, A549, H460, H1299, 786-0, 769-P, U251, A172, U937, HeLa, PC3, PANC-1, TE-1, SGC-7901, HT-29, HL-60; cited from earlier work
[2] = system: in vivo cancer parameters; conditions: animal models; cited from earlier work

Structure (SMILES) | effect on proliferation in vitro of human cancer lines [1] | in vivo cancer parameters such as tumor growth rate and relative tumor volume [2]
CO[C@@H]1[C@@H](O[C@@H]2O[C@H](C)[C@@H](O[C@H]3C[C@@](C)(O)[C@@H](OC(=O)CC(C)C)[C@H](C)O3)[C@H](N(C)C)[C@H]2O)[C@@H](CC=O)C[C@@H](C)[C@@H](O[C@H]2CC[C@H](N(C)C)[C@@H](C)O2)/C=C/C=C/C[C@@H](C)OC(=O)C[C@H]1OC(C)=O [ISP II, 4″-isolvalerylspiramycin II] | inhibitory effect | reduction
CCC(=O)O[C@@H]1CC(=O)O[C@H](C)C/C=C/C=C/[C@H](O[C@H]2CC[C@H](N(C)C)[C@@H](C)O2)[C@H](C)C[C@H](CC=O)[C@H](O[C@@H]2O[C@H](C)[C@@H](O[C@H]3C[C@@](C)(O)[C@@H](OC(=O)CC(C)C)[C@H](C)O3)[C@H](N(C)C)[C@H]2O)[C@H]1OC [ISP III, 4″-isolvalerylspiramycin III] | inhibitory effect | reduction
